Test results published in patent US12523646B2, “Device and method for cell-based drug screening” (The Regents of the University of California, priority 2017, dated 2026).

Assay: Numerical simulations (Comsol Multiphysics) of small-molecule concentration dynamics with porous beads and conical microwells
Conditions: 225 μm diameter beads

## O=C1OC2(c3ccc(O)cc3Oc3cc(O)ccc32)c2ccccc21 [fluorescein]
  diffusion coefficient in the bead, Db, corresponding to measured t1/2: 0.125 μm^2/s
